Where two headings read alike, the source gives them in different places. Where only a bound is given, the exact number is not on record here.

Here are results for 2 compounds from patent publication US11242337B2, “Compounds useful for treating gastrointestinal tract disorders” (Ardelyx, Inc., priority 2017, dated 2022).

Assay [1] deals with human ileum monolayer culture. The assay is described as follows: Sustained inhibition of apical acid secretion in human organoid monolayer cell cultures (ileum). As to conditions: Homo sapiens, 48 h; 1 μM apical, dosed day 6, apical media pH day 8, vs DMSO. Format: cell-based. Summed up: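 Human ileum organoid-derived Transwell monolayers, differentiated with ENRA from day 3, received 1 μM compound apically on day 6 (DMSO vehicle, duplicate wells). Apical medium pH was measured by electrode on day 8 as a readout of sustained NHE3-mediated proton secretion inhibition.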

The test system of assay [2] is human duodenum monolayer culture. The assay is described as follows: Sustained inhibition of apical acid secretion in human organoid monolayer cell cultures (duodenum). Format: cell-based. As to conditions: Homo sapiens. Summed up: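 Duodenum organoid cells were plated on Transwells, differentiated with EGF/noggin/A83-01 from day 3, and dosed apically on day 6 with compound at 1 μM final (DMSO vehicle control), in duplicate wells, at 37° C, 5% CO2. Apical media pH was measured by electrode on day 8.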

Assay [3] has as its system absorption of sodium from the intestinal lumen. The assay is described as follows: Inhibition of intestinal sodium absorption in mice. It is filed as in vivo. As to conditions: CD-1 mice, 15 mg/kg oral gavage twice daily; for Fecal fluid content (Δ from vehicle): day 3, change from vehicle group mean; for response vs control in vivo at 15 mg/kg: Mus musculus, 72 h, day 3, normalized to dietary sodium intake. The gist of the method: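 Male ~8-week CD-1 mice on chow with added 0.4% inorganic phosphorous, in metabolic cages after 3-day acclimation and 24-hr baseline collection. Urine sodium by ion chromatography, dried fecal sodium by MP-AES; day-3 24-hour excretion normalized to dietary sodium intake and expressed as % of vehicle mean; diarrhea and fecal fluid also recorded.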

[4] abbreviates: read-out: Fecal Na Excretion (% of vehicle).
Setting [5] is: read-out: Urinary Na Excretion (% of vehicle).

On to `Cc1cc(S(=O)(=O)N[C@@H]2CCN(CCOCCNC(=O)NCCCCNC(=O)NCCOCCN3CC[C@@H](NS(=O)(=O)c4ccc(O[C@H]5c6cc(Cl)cc(C#N)c6C[C@@H]5N(C)C)c(C)c4)C3)C2)ccc1O[C@H]1c2cc(Cl)cc(C#N)c2C[C@@H]1N(C)C` [Example 55, 3-(2-[2-[(3R)-3-[(4-[[(1S,2S)-6-Chloro-4-cyano-2-(dimethylamino)-2,3-dihydro-1H-inden-1-yl]oxy]-3-methylbenzene)sulfonamido]pyrrolidin-1-yl]ethoxy]ethyl)-1-(4-[[(2-[2-[(3R)-3-[(4-[[(1S,2S)-6-chloro-4-cyano-2-(dimethylamino)-2,3-dihydro-1H-inden-1-yl]oxy]-3-methylbenzene)sulfonamido]pyrrolidin-1-yl]ethoxy]ethyl)carbamoyl]amino]butyl)urea], for which the inhibition at 1 µM is under 50% in assay [1] and 50 to 70% in assay [2]. Further, the “Fecal fluid content (Δ from vehicle)” value in assay [3] is on record as “B (5-10)”. For the same compound, the response vs control in vivo at 15 mg/kg was 150 to 200% in assay [3] (setting [4]) and over 70% in assay [3] (setting [5]).
For the compound `Cc1cc(S(=O)(=O)N[C@H]2CCN(CCOCCNC(=O)NCCCCNC(=O)NCCOCCN3CC[C@H](NS(=O)(=O)c4ccc(O[C@H]5c6cc(Cl)cc(Cl)c6C[C@@H]5N(C)C)c(C)c4)C3)C2)ccc1O[C@H]1c2cc(Cl)cc(Cl)c2C[C@@H]1N(C)C` [Example 52, 3-(2-[2-[(3S)-3-[(4-[[(1S,2S)-4,6-Dichloro-2-(dimethylamino)-2,3-dihydro-1H-inden-1-yl]oxy]-3-methylbenzene)sulfonamido]pyrrolidin-1-yl]ethoxy]ethyl)-1-(4-[[(2-[2-[(3S)-3-[(4-[[(1S,2S)-4,6-dichloro-2-(dimethylamino)-2,3-dihydro-1H-inden-1-yl]oxy]-3-methylbenzene)sulfonamido]pyrrolidin-1-yl]ethoxy]ethyl)carbamoyl]amino]butyl)urea], the inhibition at 1 µM in assay [1] and in assay [2] was over 70% each time. Further, in assay [3], the “Fecal fluid content (Δ from vehicle)” value is recorded as “B (5-10)”. For the same compound, the response vs control in vivo at 15 mg/kg in assay [3] (setting [4]) was over 200%; in assay [3] (setting [5]) it was 50 to 70%.

The inhibition is how much of the control response was suppressed. High values mean a strong effect, low ones a weak effect.
